Measured values published in patent publication US20200016159A1, “N3-CYCLICALLY SUBSTITUTED THIENOURACILS AND USE THEREOF” (Bayer Aktiengesellschaft, priority 2016, published 2020).

Key:
[1] = test system: prostate cancer cell lines; conditions: cited from earlier work
melanoma animal models = conditions: cited from earlier work
[2] = test system: bladder tumours and breast tumours; conditions: animal models of bladder tumours and breast tumours; cited from earlier work
[3] = target: T1, human adenosine A2a receptor (Homo sapiens, UniProt P29274); assay: Adenosine receptor radioligand binding assay, A2a receptor ([3H]-CGS 21680, HEK293 membranes); conditions: membrane preparations of HEK293 cells, radioligand [3H]-CGS 21680
T1 construct: expressed in transfected cells; host or cells: HEK293
T1 sequence (P29274 whole entry): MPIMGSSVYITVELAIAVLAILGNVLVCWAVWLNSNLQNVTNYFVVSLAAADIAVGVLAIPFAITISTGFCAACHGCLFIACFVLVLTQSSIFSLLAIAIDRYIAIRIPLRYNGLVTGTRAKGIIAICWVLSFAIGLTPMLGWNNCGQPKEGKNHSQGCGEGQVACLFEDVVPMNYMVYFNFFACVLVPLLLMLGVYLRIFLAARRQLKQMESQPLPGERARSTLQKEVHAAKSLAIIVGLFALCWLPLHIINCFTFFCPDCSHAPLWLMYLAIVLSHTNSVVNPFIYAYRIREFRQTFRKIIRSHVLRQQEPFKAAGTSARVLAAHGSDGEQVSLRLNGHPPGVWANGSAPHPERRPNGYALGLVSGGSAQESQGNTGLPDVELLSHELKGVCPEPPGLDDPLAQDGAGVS
Procedure: (§1) The binding properties of the test compounds on adenosine receptors were determined in binding studies with radioligands. For this purpose, membrane preparations of the human adenosine receptor subtypes were produced from cell lines having recombinant receptor expression (CHO cells for the A1 receptor, HEK293 cells for the A2a, A2b and A3 receptors). The following radioligands were used in the experiments: [^3H]-DPCPX for the A1 receptor, [^3H]-CGS 21680 for the A2a receptor, [^3H]-CPX for the A2b receptor and [^125I]-AB-MECA for the A3 receptor. The test substances were each tested in 8 different concentrations and 2 repeat tests per concentration. The displacement of the particular radioligand by the test compound was expressed as percentage inhibition of the specific binding of the controls.
(§2) The IC50 values (concentration which brings about half-maximum inhibition of the specific binding of the controls) and the Hill coefficients (nH) were determined by a non-linear regression analysis, using the competition curves obtained from the mean values of the repeat tests and conducting a curve fit according to the Hill equation:
(§3) (Y=specific binding; A=left-hand asymptote of the curve; D=right-hand asymptote of the curve; C=substance concentration; C50=IC50; nH=rise factor).
(§4) The inhibition constant (Ki) was calculated by the Cheng-Prusoff equation:
(§5) (L=concentration of the radioligand in the assay; KD=receptor affinity of the radioligand for the receptor, determined with a Scatchard plot).
(§6) [Literature: A1 receptor: Townsend-Nicholson, A. und Schofield, P. R., J. Biol. Chem. 269: 2373-2376 (1994); A2a receptor: Luthin, D. R. et al., Mol. Pharmacol. 47: 307-313 (1995); A2b receptor: Stehle, J. H. et al., Mol. Endocrinol. 6: 384-393 (1992) and Linden et al., Mol. Pharmacol. 56: 705-713 (1999); A3 receptor: Salvatore, C. A. et al., Proc. Natl. Acad. Sci. U.S.A. 90: 10365-10369 (1993) and Jacobson, K. A. et al., Neuropharmacology 36: 1157-1165 (1997)].
(§7) Table 2 below lists the K1 values thus determined from these binding assays for representative working examples (in some cases as means of a plurality of independent individual determinations and rounded to two significant figures; it may also be the case here that various independent preparations of the respective working example have been used): […]

[4] = target: T2, human adenosine A2b receptor (Homo sapiens, UniProt P29275); assay: Cellular in vitro reporter gene test for A2b receptor activity (antagonism of NECA); type: cell-based; set-up: expressed in transfected cells; host or cells: CHO-K1 (Chinese hamster ovary) with CRE-luciferase reporter; conditions: recombinant CHO-K1 cells, CRE-luciferase reporter, co-incubation with EC50 concentration of NECA, 3 hours
T2 sequence (P29275 1-332): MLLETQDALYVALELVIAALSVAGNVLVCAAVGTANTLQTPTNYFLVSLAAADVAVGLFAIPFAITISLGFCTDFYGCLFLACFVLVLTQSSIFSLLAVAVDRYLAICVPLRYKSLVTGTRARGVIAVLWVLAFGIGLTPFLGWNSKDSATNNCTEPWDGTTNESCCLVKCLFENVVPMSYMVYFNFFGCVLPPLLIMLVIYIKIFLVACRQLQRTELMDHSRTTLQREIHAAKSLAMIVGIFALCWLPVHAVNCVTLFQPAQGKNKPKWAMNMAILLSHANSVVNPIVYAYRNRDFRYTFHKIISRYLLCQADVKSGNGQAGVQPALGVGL
Outline: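 Antagonism measured as block of NECA-induced, cAMP/CRE-dependent luciferase expression in recombinant A2b CHO-K1 cells. NECA used at the EC50 set in a pre-experiment on each test day; luminescence detected after 3 h. Reported as IC50, partly averaged and rounded to two significant figures.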

[5] = test system: IL-6 release by LL29 fibroblasts; assay: NECA-induced IL-6 release by LL29 fibroblasts; type: cell-based; conditions: Homo sapiens, Fibroblast; LL29 cells stimulated with NECA (10 μM), 24 hours, IL-6 ELISA of supernatant
Procedure: Stimulation of fibroblasts with adenosine or the adenosine analog 5′-N-ethylcarboxamidoadenosine (NECA) leads to release of the pro-inflammatory and pro-fibrotic cytokine IL-6 which can be prevented by inhibition of the A2b receptor.
Accordingly, confluent cells of the human fibroblast cell line LL29 were treated with the test substances and stimulated with NECA (10 μM). After an incubation time of 24 hours, the cell supernatant is removed and human IL-6 in the cell supernatant is determined by ELISA (Quantikine® IL6 ELISA, R&D Systems, Minneapolis, USA).
as §7, with “3” for “2”, “IC50” for “K1”, “obtained in this way for inhibition of IL-6 release” for “thus determined from these binding assays”

[6] = target: T3, human adenosine A3 receptor (Homo sapiens, UniProt P0DMS8); assay: Adenosine receptor radioligand binding assay, A3 receptor ([125I]-AB-MECA, HEK293 membranes); conditions: membrane preparations of HEK293 cells, radioligand [125I]-AB-MECA
T3 construct: expressed in transfected cells; host or cells: HEK293
T3 sequence (P0DMS8 1-318): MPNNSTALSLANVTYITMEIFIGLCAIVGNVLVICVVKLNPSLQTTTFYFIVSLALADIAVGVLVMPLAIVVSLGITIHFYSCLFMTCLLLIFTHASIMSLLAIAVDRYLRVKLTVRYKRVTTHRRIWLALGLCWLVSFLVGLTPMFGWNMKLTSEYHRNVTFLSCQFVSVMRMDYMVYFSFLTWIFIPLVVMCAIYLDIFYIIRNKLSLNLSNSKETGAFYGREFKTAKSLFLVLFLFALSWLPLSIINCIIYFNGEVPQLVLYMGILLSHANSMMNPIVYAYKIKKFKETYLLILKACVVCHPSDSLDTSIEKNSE
Procedure: as §1, §2, §3, §4, §5, §6, §7

[7] = target: T4, human adenosine A1 receptor (Homo sapiens, UniProt P30542); assay: Adenosine receptor radioligand binding assay, A1 receptor ([3H]-DPCPX, CHO membranes); conditions: membrane preparations of CHO cells, radioligand [3H]-DPCPX
T4 construct: expressed in transfected cells; host or cells: CHO
T4 sequence (P30542 1-326): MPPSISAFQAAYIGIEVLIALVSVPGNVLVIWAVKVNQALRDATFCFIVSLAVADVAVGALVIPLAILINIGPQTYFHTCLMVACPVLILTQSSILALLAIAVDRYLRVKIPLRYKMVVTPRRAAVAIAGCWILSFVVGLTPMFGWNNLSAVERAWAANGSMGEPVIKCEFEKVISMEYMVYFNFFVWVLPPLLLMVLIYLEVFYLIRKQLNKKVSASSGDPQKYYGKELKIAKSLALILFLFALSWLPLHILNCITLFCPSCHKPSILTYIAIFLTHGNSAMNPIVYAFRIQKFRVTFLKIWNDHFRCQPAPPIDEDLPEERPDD
Procedure: as §1, §2, §3, §4, §5, §6, §7

[8] = target: T2, human adenosine A2b receptor; assay: Adenosine receptor radioligand binding assay, A2b receptor ([3H]-CPX, HEK293 membranes); set-up: expressed in transfected cells; conditions: membrane preparations of HEK293 cells, radioligand [3H]-CPX
Procedure: as §1, §2, §3, §4, §5, §6, §7

colon cancer cell lines = conditions: inhibition of the A2b receptor-mediated adenosine signalling pathway; cited from earlier work

Row | Compound | Ki [3] [nM] | IC50 [4] [nM] | IC50 [5] [nM] | Ki [6] [nM] | Ki [7] [nM] | Ki [8] [nM] | other results
1 | CCCn1c(=O)[nH]c2nc(-c3ccc(S(=O)(=O)N4CCN(c5ccc(Cl)cc5)CC4)cc3)[nH]c2c1=O [PSB603] | – | – | – | – | – | – | growth of several prostate cancer cell lines [1]: reduces the growth; tumour growth and metastasis (melanoma animal models): reduction in tumour growth and metastasis
2 | CCCn1c(=O)n(C2CC2)c(=O)c2[nH]c(-c3ccc(N(CC)C(=O)c4cccnc4)nc3)nc21 [ATL801] | – | – | – | – | – | – | interferon γ level [2]: significant increase; metastasis [2]: distinct reduction in metastasis; number of tumour antigen-presenting dendritic cells [2]: increase; tumour growth [2]: slowing of tumour growth
3 | COCCn1c(=O)n([C@H]2C[C@@H]2C)c(=O)c2c(C)c(CN3CCNC3=O)sc21 [Example 315, 1-(2-Methoxyethyl)-5-methyl-3-[(1S,2S)-2-methylcyclopropyl]-6-[(2-oxoimidazolidin-1-yl)methyl]thieno[2,3-d]pyrimidine-2,4(1H,3H)-dione] | 480 | 3.8 | 4.9 | 3700 | 3400 | 3.7 | –
4 | Cc1c(Cn2nc[nH]c2=O)sc2c1c(=O)n(C1CC1)c(=O)n2CCOC(F)(F)F [Example 36, 3-Cyclopropyl-5-methyl-6-[(5-oxo-4,5-dihydro-1H-1,2,4-triazol-1-yl)methyl]-1-[2-(trifluoromethoxy)ethyl]thieno[2,3-d]pyrimidine-2,4(1H,3H)-dione] | 950 | 4.4 | 6.1 | > 50000 | 2600 | 2.6 | melting point: 199 °C
5 | CCCn1c(=O)c2[nH]c(-c3ccc(OCC(=O)Nc4ccc(C#N)cc4)cc3)nc2n(CCC)c1=O [MRS1754] | – | – | – | – | – | – | growth of colon cancer cell lines (colon cancer cell lines): reduced growth
6 | COCCn1c(=O)n(C2CC2C)c(=O)c2c(C)c(CN3CCNC3=O)sc21 (single isomer, unassigned) [Example 96, 1-(2-Methoxyethyl)-5-methyl-3-(2-methylcyclopropyl)-6-[(2-oxoimidazolidin-1-yl)methyl]thieno[2,3-d]pyrimidine-2,4(1H,3H)-dione] | 480 | 3.8 | 4.9 | 3700 | 3400 | 3.7 | –
